Results taken from patent US20230210797A1, “PREVENTING AND TREATING HYPOGLYCEMIA” (DIAMYD MEDICAL AB, priority 2019, published 2023).

Tests used:
glucagon = experiment: Hypoglycemic clamp: plasma glucagon levels; type: in vivo, human; conditions: type 1 diabetes individuals with pathologically increased glucagon
Method: (§1) In order to evaluate the counterregulatory hormone response to hypoglycemia, a hypoglycemic clamp will be performed. The Hypoglycemic Clamp must be performed according to the instructions in the Operations Manual. (Appendix 3)
(§2) The patient should: • Come to the study site following an overnight fast (>10 hours), i.e. the patient may not eat but is permitted to drink water • Not have taken the Remygen and, if applicable, Alprazolam dose in the morning • Not take short acting/direct acting insulin within 6 hours before the investigation. • The patient is allowed to take base-insulin day/night before, but not in the morning before the investigation.
(§3) Patients with CSII (insulin pump) must continue with their basal dose insulin, but not add bolus dose during the last 6 hours before the investigation.
(§4) If a patient has a blood sugar level <4 mmol/L in the morning of the scheduled visit, the patient is allowed to take dextrose tablets and then come to the study site. The patient is allowed to perform the investigation if the blood sugar level is >4 mmol/L.
(§5) In the dose-escalation part of the study, the patient will take study drug 30 min prior to start of the hypoglycemic clamp. In the main study, the study drug will instead be taken after finalization of the hypoglycemic clamp. Baseline blood samples will be obtained for glucose, glucagon, epinephrine, norepinephrine, growth hormone and cortisol. The clamp will then be initiated by an intravenous insulin infusion at a rate of 2 mU×kg^−1×min^−1. Glucose 100 mg/ml will then be administered in variable infusion rates to clamp the blood glucose concentration at 5.5 mmol/land then at 2.5 mmol/land kept stable for 30 min. Blood glucose will be evaluated repeatedly in order to find the optimal glucose infusion rate. Blood sampling to determined levels of counterregulatory hormones as described above will be performed at each of these target levels when a stable glucose concentration has been reached. The insulin infusion will thereafter be terminated and the patient is allowed to eat and will be observed until normoglycemia is achieved. If necessary, additional glucose administration will be given to allow blood glucose concentrations to normalize.
(§6) Plasma glucose was first lowered to normoglycemic levels (5.5 mmol/L) and hormone levels monitored, and then to hypoglycemic levels (2.5 mmol/L) and hormone levels monitored. Difference was calculated as a measurement of the response to hypoglycemia.

growth hormone = experiment: Hypoglycemic clamp: plasma growth hormone levels; type: in vivo, human; conditions: for Growth hormone levels, change from baseline, Mean / Growth hormone levels, change from baseline, Median / Growth hormone levels, observed value, Mean / Growth hormone levels, observed value, Median: C-peptide undetectable, n=5
Method: as §1, §2, §3, §4, §5, §6

[1] = Visit 5, 200 mg GABA per day, event 2.5 mmol/L
[2] = Visit 5, 200 mg GABA per day, event 5.5 mmol/L
[3] = Visit 5, 200 mg GABA per day, event Baseline
[4] = Visit 5, 200 mg GABA per day, event Diff 2.5-5.5 mmol/L
[5] = Visit 7, 600 mg GABA per day, event 2.5 mmol/L
[6] = Visit 7, 600 mg GABA per day, event 5.5 mmol/L
[7] = Visit 7, 600 mg GABA per day, event Baseline
[8] = Visit 7, 600 mg GABA per day, event Diff 2.5-5.5 mmol/L
[9] = Visit 9, 1200 mg GABA per day, event 2.5 mmol/L
[10] = Visit 9, 1200 mg GABA per day, event 5.5 mmol/L
[11] = Visit 9, 1200 mg GABA per day, event Baseline
[12] = Visit 9, 1200 mg GABA per day, event Diff 2.5-5.5 mmol/L

## NCCCC(=O)O [GABA, Gamma-amino butyric acid]
glucagon
  Circulating glucagon concentrations, effect of GABA: lower
Growth hormone; [1]
  Growth hormone levels, change from baseline, Mean: 4.560 µg/L
  Growth hormone levels, change from baseline, Median: 3.400 µg/L
  Growth hormone levels, observed value, Mean: 11.632 µg/L
  Growth hormone levels, observed value, Median: 4.000 µg/L
Growth hormone; [2]
  Growth hormone levels, change from baseline, Mean: -0.802 µg/L
  Growth hormone levels, change from baseline, Median: 0.000 µg/L
  Growth hormone levels, observed value, Mean: 2.110 µg/L
  Growth hormone levels, observed value, Median: 0.070 µg/L
Growth hormone; [3]
  Growth hormone levels, change from baseline, Mean: 0.475 µg/L
  Growth hormone levels, change from baseline, Median: 0.035 µg/L
  Growth hormone levels, observed value, Mean: 0.630 µg/L
  Growth hormone levels, observed value, Median: 0.080 µg/L
Growth hormone; [4]
  Growth hormone levels, change from baseline, Mean: 5.362 µg/L
  Growth hormone levels, change from baseline, Median: 4.000 µg/L
  Growth hormone levels, observed value, Mean: 9.522 µg/L
  Growth hormone levels, observed value, Median: 3.440 µg/L
Growth hormone; [5]
  Growth hormone levels, change from baseline, Mean: 10.068 µg/L
  Growth hormone levels, change from baseline, Median: 9.000 µg/L
  Growth hormone levels, observed value, Mean: 17.140 µg/L
  Growth hormone levels, observed value, Median: 11.700 µg/L
Growth hormone; [6]
  Growth hormone levels, change from baseline, Mean: -1.812 µg/L
  Growth hormone levels, change from baseline, Median: -0.340 µg/L
  Growth hormone levels, observed value, Mean: 1.100 µg/L
  Growth hormone levels, observed value, Median: 0.160 µg/L
Growth hormone; [7]
  Growth hormone levels, change from baseline, Mean: 2.098 µg/L
  Growth hormone levels, change from baseline, Median: 0.090 µg/L
  Growth hormone levels, observed value, Mean: 2.253 µg/L
  Growth hormone levels, observed value, Median: 0.140 µg/L
Growth hormone; [8]
  Growth hormone levels, change from baseline, Mean: 11.880 µg/L
  Growth hormone levels, observed value, Mean: 16.040 µg/L
  Growth hormone levels, observed value, Median: 10.820 µg/L
Growth hormone; [9]
  Growth hormone levels, change from baseline, Mean: 7.388 µg/L
  Growth hormone levels, change from baseline, Median: 7.900 µg/L
  Growth hormone levels, observed value, Mean: 14.460 µg/L
  Growth hormone levels, observed value, Median: 14.000 µg/L
Growth hormone; [10]
  Growth hormone levels, change from baseline, Mean: -1.468 µg/L
  Growth hormone levels, change from baseline, Median: -0.210 µg/L
  Growth hormone levels, observed value, Mean: 1.444 µg/L
  Growth hormone levels, observed value, Median: 0.170 µg/L
Growth hormone; [11]
  Growth hormone levels, change from baseline, Median: 0.100 µg/L
  Growth hormone levels, observed value, Mean: 0.461 µg/L
  Growth hormone levels, observed value, Median: 0.170 µg/L
Growth hormone; [12]
  Growth hormone levels, change from baseline, Mean: 8.856 µg/L
  Growth hormone levels, change from baseline, Median: 6.900 µg/L
  Growth hormone levels, observed value, Mean: 13.016 µg/L
  Growth hormone levels, observed value, Median: 8.600 µg/L
Growth hormone; change in levels when clamping to 2.5 mmol/L from 5.5 mmol/L
  Counter regulatory response of Growth hormone, effect of GABA treatment: increased
Growth hormone; clamped to 5.5 mmol/L
  Normoglycemic levels of Growth hormone, effect of GABA treatment: decrease
